# Legend:
# [1] = molecular target: T1, Proteasome subunit beta type-5 (Homo sapiens, UniProt P28074); assay: Proteasome Activity Inhibition
# T1 sequence (P28074 whole entry): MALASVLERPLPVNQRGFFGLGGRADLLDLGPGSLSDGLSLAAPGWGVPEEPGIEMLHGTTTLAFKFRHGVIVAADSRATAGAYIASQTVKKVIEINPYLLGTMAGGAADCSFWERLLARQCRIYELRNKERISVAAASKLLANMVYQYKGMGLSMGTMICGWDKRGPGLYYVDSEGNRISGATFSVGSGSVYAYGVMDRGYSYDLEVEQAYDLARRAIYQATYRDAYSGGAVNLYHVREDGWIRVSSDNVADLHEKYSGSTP
# Method: (§1) RPMI8226 cells, which is a multiple myeloma cell line, were cultured and then separated by a centrifuge, and washed twice with phosphate buffered saline (PBS). 20 mM of a tris-HCl (pH 8.0) buffer solution was added to the washed cells, and the cells were disrupted by a homogenizer and centrifuged to obtain S26 protein from the supernatant. Suc-Leu-Leu-Val-Tyr-AMC, for a fluorogenic substrate for the chymotrypsin-like activity of the proteasome, and Z-Leu-Leu-Glu-AMC, for a fluorogenic substrate for the caspase-like activity, were purchased from Calbiochem, EMD Millipore and used. Into each well of a 96-well plate (opaque, black round bottom), 20 ul of the S26 protein (final RPMI8226 cell extract concentration: 2 ug/well), 10 ul of S26 proteasome inhibitor serially diluted from 10 uM (final DMSO concentration: 0.5%), and 20 ul of the fluorogenic substrate for the proteasome chymotrypsin-like or caspase-like activity (final concentration: 20 uM) were added and mixed and allowed to react in a 37° C. incubator for 90 minutes. The fluorescence of the fluorogenic substrate was measured by FlexStation II Fluorometer (Molecular Devices). The fluorescence inhibited by the compound diluted at each concentration was measured as the relative percentage value for the amount obtained from the treatment only with the S26 protein and the fluorogenic substrate.
# [2] = molecular target: T2, Proteasome subunit beta type-6 (Homo sapiens, UniProt P28072); assay: Proteasome Activity Inhibition
# T2 sequence (P28072 whole entry): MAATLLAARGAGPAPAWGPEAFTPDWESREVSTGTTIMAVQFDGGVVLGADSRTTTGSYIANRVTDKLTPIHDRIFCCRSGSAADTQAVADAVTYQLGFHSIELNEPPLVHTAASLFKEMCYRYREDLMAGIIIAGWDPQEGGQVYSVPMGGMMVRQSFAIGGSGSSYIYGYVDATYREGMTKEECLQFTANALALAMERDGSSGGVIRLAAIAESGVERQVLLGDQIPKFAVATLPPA
# Method: as §1
SMILES,IC50 [1] [nM],IC50 [2] [nM]
"COc1ccc(Cl)cc1-c1cccc(C2=NOC(Cc3ccccc3)(C(=O)N[C@@H](CC(C)C)B(O)O)C2)c1 (stereo partly drawn) [US12570675, Example 35]",< 500,–
"CC(C)C[C@H](NC(=O)C1CC(CNc2ccccn2)=NO1)B(O)O (stereo partly drawn) [US12570675, Example 60]",< 250,–
"CC(C)C[C@H](NC(=O)C1CC(CNC(=O)C2Cc3ccccc3C2)=NO1)B(O)O (stereo partly drawn) [US12570675, Example 78]",< 50,–
"CC(C)C[C@H](NC(=O)C1CC(CNC(=O)C2CCCc3ccccc32)=NO1)B(O)O (stereo partly drawn) [US12570675, Example 80]",< 25,> 500
"CC(C)C[C@H](NC(=O)C1(Cc2ccccc2)CC(CNC(=O)c2cn(C(C)C)c3ccccc23)=NO1)B(O)O (stereo partly drawn) [US12570675, Example 209]",< 10,–
"CC[C@H](NC(=O)C1(Cc2ccccc2)CC(CNC(=O)c2ccccc2)=NO1)B(O)O (stereo partly drawn) [US12570675, Example 293]",< 25,> 500

# Source: BindingDB's records for patent US12570675 (LG Chem, 2026)
